Experimental data reported in patent US20240383845A1, “NAPHTHALENEDITHIOL AND DERIVATIVE THEREOF, AND PRODUCTION PROCESS AND USE FOR THE SAME” (SUGAI CHEMICAL INDUSTRY CO., LTD., priority 2021, published 2024).

Legend:
[1] = Refractive index (abbe refractometer); format: physicochemical
Procedure: The refractive index of each sample was measured using an abbe refractometer (“NAR-lT” manufactured by ATAGO CO., LTD.) at a temperature of 25° C. and a wavelength of 589 nm. Depending on the species of each sample, the refractive index was measured as follows.
For the after-mentioned 16NDSH, 15NDSH, 26NDSH and 27NDSH; 15DGNDSH; 15DHENDSH; 16DMNDSH and 15DMNDSH; and 16DCNDSH and 15DCNDSH, a sample was dissolved in 1,3-dimethyl-2-imidazolidinone (DMI) to prepare multiple solutions with different concentrations, and the refractive index of each solution was measured at a temperature of 25° C. and a wavelength of 589 nm. From the results of the refractive index at each concentration, the refractive index value at 100% by mass of the concentration was determined by extrapolation.
For the after-mentioned 16NDSHMA, 15NDSHMA, 26NDSHMA and 27NDSHMA; 16NDSHA and 15NDSHA; 15DANDSH; and 15DVNDSH, polymerization may occur during the mixing, and thus a sample was dissolved in a methoquinone/DMI solution (a solution containing 4000 ppm of methoquinone relative to the mass of DMI) to prepare multiple solutions with different concentrations. The refractive index of each solution was measured at a temperature of 25° C. and a wavelength of 589 nm. From the results of the refractive index at each concentration, the refractive index value at 100% by mass of the concentration was determined by extrapolation.
For the after-mentioned 16DANDSH; 16DVNDSH; 16DGNDSH; and 16DHENDSH, a sample was liquid for a while after preparation, and thus the refractive index was measured in the state of an undiluted solution. Further, thiol-ene-based resins (thiol-ene-based resins obtained from 16NDSH or 15NDSH and divinylbenzene) were measured in the same manner. […]

[2] = Dissolubility or compatibility (maximum dissolved concentration, HPLC); format: physicochemical; details: for Dissolubility, Ethyl acetate / Dissolubility, MMA / Dissolubility, PGMEA / Dissolubility, Styrene / Dissolubility, Toluene / Dissolubility, DMF / Dissolubility, THF / Dissolubility, Methanol: 25° C.; for Dissolubility, MMA: methyl methacrylate; for Dissolubility, PGMEA: propylene glycol monomethyl ether acetate; for Dissolubility, DMF: N,N-dimethylformamide; for Dissolubility, THF: tetrahydrofuran
Procedure: In more detail, the sample was added to a predetermined amount of a solvent or a polymerizable component until the sample was no longer dissolved, and the sample content of the liquid layer (the solvent layer) of the resulting mixture was analyzed using an HPLC (“SPD-20A” manufactured by SHIMADZU CORPORATION), and thus the concentration (the maximum dissolved concentration) of the sample in the liquid layer (the solvent layer) was determined as a solubility.

[3] = stated for the raw material used, method not stated
[4] = 25° C., 589 nm, methoquinone/DMI solutions, value at 100% by mass by extrapolation
[5] = 25° C., 589 nm, DMI solutions of different concentrations, value at 100% by mass by extrapolation
[6] = 25° C., 589 nm, measured as undiluted liquid (also thiol-ene-based resins)

Compound	melting point	Dissolubility, Ethyl acetate [2]	Dissolubility, MMA [2]	Dissolubility, PGMEA [2]	Dissolubility, Styrene [2]	Dissolubility, Toluene [2]	Refractive index [1, 4]	Dissolubility, DMF [2]	Dissolubility, THF [2]	Refractive index [1, 5]	saturation solubility ([2]; in PMMA resin composition)	Dissolubility, Methanol [2]	saturation solubility ([2]; in 55% divinylbenzene (isomer mixture))	saturation solubility ([2]; in curable composition with bisphenol A-type liquid epoxy resin)	saturation solubility ([2]; in styrene (curable resin))	Refractive index [1, 6]	Refractive index [1, 3]
CCc1nc(C)c[nH]1 [2-ethyl-4-methylimidazole]	–	–	–	–	–	–	–	–	–	–	–	–	–	–	–	–	1.499
C=CCSc1cccc2c(SCC=C)cccc12 [Example 15DANDSH, 1,5-bis(allylthio)naphthalene]	78 to 79 °C	16.4 % by mass	26.6 % by mass	13.7 % by mass	10.6 % by mass	26.1 % by mass	1.653	–	–	–	–	–	–	–	–	–	–
O=C(O)CSc1cccc2c(SCC(=O)O)cccc12 [Example 15DCNDSH, 1,5-bis(carboxymethylthio)naphthalene]	–	0.03 % by mass	< 0.01 % by mass	0.02 % by mass	–	–	–	10.1 % by mass	0.67 % by mass	1.657	–	–	–	–	–	–	–
c1cc(SCC2CO2)c2cccc(SCC3CO3)c2c1 (stereo not shown) [Example 15DGNDSH, 1,5-bis(glycidylthio)naphthalene]	50 to 53 °C	51.9 % by mass	60.9 % by mass	62.3 % by mass	43.6 % by mass	56.8 % by mass	–	–	–	1.621	–	–	–	–	–	–	–
OCCSc1cccc2c(SCCO)cccc12 [Example 15DHENDSH, 1,5-bis(2-hydroxyethylthio)naphthalene]	84 to 86 °C	3.01 % by mass	34.7 % by mass	3.60 % by mass	0.35 % by mass	0.19 % by mass	–	–	–	1.668	–	–	–	–	–	–	–
CSc1cccc2c(SC)cccc12 [Example 15DMNDSH, 1,5-bis(methylthio)naphthalene]	149 to 151 °C	1.25 % by mass	1.44 % by mass	1.25 % by mass	3.13 % by mass	2.36 % by mass	–	–	–	1.690	about 10 % by mass	–	–	–	–	–	–
C=CSc1cccc2c(SC=C)cccc12 [Example 15DVNDSH, 1,5-bis(vinylthio)naphthalene]	50 to 52 °C	39.0 % by mass	43.6 % by mass	26.3 % by mass	45.8 % by mass	59.6 % by mass	1.685	–	–	–	–	–	–	–	–	–	–
Sc1cccc2c(S)cccc12 [Example 15NDSH, 1,5-naphthalenedithiol]	–	7.05 % by mass	–	7.44 % by mass	–	7.26 % by mass	–	34.4 % by mass	29.0 % by mass	1.711	–	1.08 % by mass	about 5 % by mass	about 0.1 % by mass	–	–	–
C=Cc1ccccc1 [styrene]	–	–	–	–	–	–	–	–	–	–	–	–	–	–	–	–	1.544

Now from value to compound, other results behind:

melting point	Dissolubility, Ethyl acetate [2]	Dissolubility, MMA [2]	Dissolubility, PGMEA [2]	Dissolubility, Styrene [2]	Dissolubility, Toluene [2]	Refractive index [1, 4]	Dissolubility, DMF [2]	Dissolubility, THF [2]	Refractive index [1, 5]	saturation solubility ([2]; in PMMA resin composition)	Dissolubility, Methanol [2]	saturation solubility ([2]; in 55% divinylbenzene (isomer mixture))	saturation solubility ([2]; in curable composition with bisphenol A-type liquid epoxy resin)	saturation solubility ([2]; in styrene (curable resin))	Refractive index [1, 6]	Compound	Refractive index [1, 3]
156 to 158 °C	1.57 % by mass	1.93 % by mass	1.50 % by mass	4.24 % by mass	2.61 % by mass	1.646	–	–	–	–	–	–	–	–	–	C=CC(=O)Sc1cccc2c(SC(=O)C=C)cccc12 [Example 15NDSHA, 1,5-bis(acryloylthio)naphthalene]	–
–	4.36 % by mass	5.22 % by mass	3.34 % by mass	10.4 % by mass	6.73 % by mass	1.638	13.2 % by mass	18.7 % by mass	–	–	0.36 % by mass	–	–	about 10 % by mass	–	C=C(C)C(=O)Sc1cccc2c(SC(=O)C(=C)C)cccc12 [Example 15NDSHMA, 1,5-bis(methacryloylthio)naphthalene]	–
–	Freely blended (>90) % by mass	Freely blended (>90) % by mass	Freely blended (>90) % by mass	Freely blended (>90) % by mass	Freely blended (>90) % by mass	–	–	–	–	–	–	–	–	–	1.667	C=CCSc1ccc2c(SCC=C)cccc2c1 [Example 16DANDSH, 1,6-bis(allylthio)naphthalene]	–
176 to 178 °C	0.56 % by mass	0.14 % by mass	0.98 % by mass	–	–	–	61.0 % by mass	30.5 % by mass	1.663	–	–	–	–	–	–	O=C(O)CSc1ccc2c(SCC(=O)O)cccc2c1 [Example 16DCNDSH, 1,6-bis(carboxymethylthio)naphthalene]	–
–	Freely blended (>90) % by mass	Freely blended (>90) % by mass	Freely blended (>90) % by mass	Freely blended (>90) % by mass	Freely blended (>90) % by mass	–	–	–	–	–	–	–	–	–	1.665	c1cc(SCC2CO2)c2ccc(SCC3CO3)cc2c1 (stereo not shown) [Example 16DGNDSH, 1,6-bis(glycidylthio)naphthalene]	–
–	Freely blended (>90) % by mass	Freely blended (>90) % by mass	Freely blended (>90) % by mass	2.87 % by mass	1.69 % by mass	–	–	–	–	–	–	–	–	–	1.672	OCCSc1ccc2c(SCCO)cccc2c1 [Example 16DHENDSH, 1,6-bis(2-hydroxyethylthio)naphthalene]	–
–	Freely blended (>90) % by mass	Freely blended (>90) % by mass	Freely blended (>90) % by mass	Freely blended (>90) % by mass	Freely blended (>90) % by mass	–	–	–	–	–	–	–	–	–	1.699	C=CSc1ccc2c(SC=C)cccc2c1 [Example 16DVNDSH, 1,6-bis(vinylthio)naphthalene]	–
–	–	–	–	–	–	–	–	–	1.722	–	19.3 % by mass	–	–	–	–	Sc1ccc2c(S)cccc2c1 [Example 16NDSH, 1,6-naphthalenedithiol]	–
–	44.6 % by mass	44.1 % by mass	31.1 % by mass	51.1 % by mass	50.7 % by mass	1.647	59.5 % by mass	67.6 % by mass	–	–	2.49 % by mass	–	–	–	–	C=C(C)C(=O)Sc1ccc2c(SC(=O)C(=C)C)cccc2c1 [Example 16NDSHMA, 1,6-bis(methacryloylthio)naphthalene]	–
–	1.08 % by mass	2.42 % by mass	1.46 % by mass	5.00 % by mass	3.73 % by mass	1.651	4.59 % by mass	9.59 % by mass	–	–	0.13 % by mass	–	–	–	–	C=C(C)C(=O)Sc1ccc2cc(SC(=O)C(=C)C)ccc2c1 [Example 26NDSHMA, 2,6-bis(methacryloylthio)naphthalene]	–
–	3.20 % by mass	4.36 % by mass	2.68 % by mass	7.92 % by mass	6.84 % by mass	1.649	17.5 % by mass	13.1 % by mass	–	–	0.20 % by mass	–	–	–	–	C=C(C)C(=O)Sc1ccc2ccc(SC(=O)C(=C)C)cc2c1 [Example 27NDSHMA, 2,7-bis(methacryloylthio)naphthalene]	–
